Test results: patent US20040116336A1, “Peptide derivatives” (priority 2002, published 2004)
Non-standard residues stand in square brackets, D forms with d. Residues, ends and D or L forms follow the SMILES beside them. No end group written: not given here. Phe(4-Cl) = N[C@@H](Cc1ccc(Cl)cc1)C(=O)O; Lys(Me2) = CN(C)CCCC[C@H](N)C(=O)O; Cha = N[C@@H](CC1CCCCC1)C(=O)O; pGlu = O=C1CC[C@@H](C(=O)O)N1; NMeA = CN[C@@H](C)C(=O)O; Dap = NC[C@H](N)C(=O)O

Tests used:
APJ [1] = biological target: T1, APJ (Homo sapiens, UniProt P35414); assay: Inhibitory activity on forskolin-stimulated cAMP production in CHO-A10 clone 6 cells; format: cell-based; details: read-out: EC50
T1 construct: expressed in transfected cells; host or cells: CHO (CHO-A10; clone 6 for the cAMP assay)
T1 sequence (P35414 1-380): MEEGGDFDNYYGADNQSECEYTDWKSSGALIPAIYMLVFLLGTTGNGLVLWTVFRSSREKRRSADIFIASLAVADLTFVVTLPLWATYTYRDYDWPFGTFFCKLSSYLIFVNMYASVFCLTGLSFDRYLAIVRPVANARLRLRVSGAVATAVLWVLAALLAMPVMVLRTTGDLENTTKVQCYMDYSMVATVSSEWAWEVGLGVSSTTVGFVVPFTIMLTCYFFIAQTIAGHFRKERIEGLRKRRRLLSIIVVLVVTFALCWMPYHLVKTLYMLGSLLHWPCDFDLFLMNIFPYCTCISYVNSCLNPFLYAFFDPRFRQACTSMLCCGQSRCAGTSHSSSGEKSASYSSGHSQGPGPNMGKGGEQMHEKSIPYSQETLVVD
Method: Measurement of an Inhibitory Activity on Forskolin-Stimulated cAMP Production
Hanks' balanced salt solution (HBSS) containing 0.2 mM 3-isobutyl-1-methylxanthine (IBMX) and 0.05% bovine serum albumin was prepared as an assay buffer, and each well was washed twice with 500 μl assay buffer and pre-incubated at 37° C. for 30 minutes. Further, each well was washed once with 500 μl assay buffer, and a sample dissolved in the assay buffer containing 1 μM forskolin was added at a volume of 500 μl/well and incubated at 37° C. for 30 minutes. Wells incubated with the assay buffer not containing forskolin were prepared in the same manner in order to determine the basal level of cellular cAMP production, while wells incubated with the assay buffer containing forskolin were also prepared in order to determine the maximum level of cAMP production stimulated with forskolin. After incubation was finished, each well was washed once with 500 μl assay buffer, and 500 μl lysis buffer 1B attached to a cAMP EIA system from Amersham was added to each well, to extract cAMP. According to the protocol of the kit, 100 μl of each extract was used to determine the level of cAMP. For the inhibitory activity of the sample on cAMP production, the difference (inhibited cAMP production) between the maximum level and the level of cAMP in the sample-containing wells was determined, and the inhibitory activity was expressed as percentage relative to the increased level of cAMP production stimulated with forskolin (that is, the difference between the maximum level and basal level), and from this dose-reaction curve, the EC50 was determined.

APJ [2] = biological target: T1, APJ; assay: Receptor binding assay-2 (compound in Reference Example 2 used); details: compound in Reference Example 2 used as ligand; read-out: IC50
Method: This product was mixed with an equal volume of an assay buffer (50 mM Tris-HCl/pH 7.5, 5 mM EDTA, 0.5 mM PMSF, 20 μg/ml leupeptin, 0.1 μg/ml pepstatin A, 4 μg/ml E-64 (Peptide Research Laboratory, Co.), 0.1% bovine serum albumin) and stored at −30° C. before use.
CHO-A10 cells were cultured, recovered with PBS containing 5 mM EDTA from a culture vessel, and suspended in the above-mentioned assay buffer not containing bovine serum albumin. The cells were homogenized 3 times at 12,000 rpm for 15 seconds by a Polytron homogenizer (manufactured by Kinematica Inc.) and then centrifuged (1000×g, 4° C., 10 minutes), and the supernatant was recovered. The precipitates were subjected again to the same procedure as above, and the respective supernatants were combined and centrifuged at 100,000×g, 4° C. for 1 hour, to recover precipitates (membrane fraction). The membrane fraction was suspended again in a small amount of the buffer, homogenized with a Teflon homogenizer and stored at −80° C. before use.
Binding assay was carried out under the following conditions. […] Measurement of non-specific binding was carried out using a well containing 1 μM unlabeled compound in place of the test sample. After the incubation was finished, a cell harvester (Packard) adapted to 96 wells and a filter unit (GF/C, Packard) were used for separation thereby capturing the membrane fraction on the filter. After the filter was sufficiently dried, Microcinti 0 (Packard) was added thereto, and using Top Count (Packard), the amount of the labeled material captured together with the membrane fraction on the filter was measured.

| EC50 (APJ [1]) [nM] | IC50 (APJ [2]) [nM] | Compound |
| --- | --- | --- |
| 0.22 | 0.51 | CSCC[C@H](NC(=O)[C@@H]1CCCN1C(=O)CNC(=O)[C@H](CCCCN)NC(=O)[C@H](Cc1c[nH]cn1)NC(=O)[C@H](CO)NC(=O)[C@H](CC(C)C)NC(=O)[C@H](CCCNC(=N)N)NC(=O)[C@@H]1CCCN1C(=O)[C@@H](N)CCCNC(=N)N)C(=O)N[C@@H](CC1CCCCC1)C(=O)O [Compound in Ex. 36] (H-RPRLSHKGPM[Cha]-OH; N-terminus and C-terminus assumed) |
| 0.26 | 0.071 | CC(C)C[C@H](NC(=O)[C@H](CCCNC(=N)N)NC(=O)[C@@H]1CCCN1C(=O)[C@H](CCCNC(=N)N)NC(=O)[C@H](CCC(N)=O)NC(=O)[C@H](CCCNC(=N)N)NC(=O)[C@@H](N)CCCNC(=N)N)C(=O)N[C@@H](CO)C(=O)N[C@@H](C)C(=O)N[C@@H](CCCNC(=N)N)C(=O)NCC(=O)N1CCC[C@H]1C(=O)O [Compound in Ex. 19] |
| 0.14 | 0.27 | RPRLFARGPMPF [Compound in Ex. 31] |
| 0.37 | 0.064 | CC(C)C[C@H](NC(=O)[C@H](CCCNC(=N)N)NC(=O)[C@@H]1CCCN1C(=O)[C@@H](N)CCCNC(=N)N)C(=O)N[C@@H](CO)C(=O)N[C@@H](C)C(=O)N[C@@H](CCCNC(=N)N)C(=O)NCC(=O)N1CCC[C@H]1C(=O)N[C@@H](C)C(=O)N1CCC[C@H]1C(=O)N[C@@H](Cc1ccc(Cl)cc1)C(=O)O [Compound in Ex. 53] (H-RPRLSARGPAP[Phe(4-Cl)]-OH; N-terminus and C-terminus assumed) |
| 0.15 | 0.81 | CSCC[C@H](NC(=O)[C@@H]1CCCN1C(=O)CNC(=O)[C@H](CCCNC(=N)N)NC(=O)[C@H](CCCNC(=N)N)NC(=O)[C@H](Cc1ccccc1)NC(=O)[C@H](CC(C)C)NC(=O)[C@H](CCCNC(=N)N)NC(=O)[C@@H]1CCCN1C(=O)[C@H](CCCNC(=N)N)NC(=O)[C@@H]1CCC(=O)N1)C(=O)N1CCC[C@H]1C(=O)N[C@@H](Cc1ccccc1)C(=O)O [Compound in Ex. 42] ([pGlu]RPRLFRRGPMPF-OH) |
| 0.32 | 0.12 | CSCC[C@H](NC(=O)[C@@H]1CCCN1C(=O)CNC(=O)[C@H](CCCCN)NC(=O)[C@H](Cc1c[nH]cn1)NC(=O)[C@H](CO)NC(=O)[C@H](CC(C)C)NC(=O)[C@H](CCCNC(=N)N)NC(=O)[C@@H]1CCCN1C(=O)[C@H](CCCNC(=N)N)NC(=O)[C@H](CCCNC(=N)N)NC(=O)[C@H](CCCNC(=N)N)NC(=O)[C@@H](N)CCCNC(=N)N)C(=O)N1CCC[C@H]1C(=O)N[C@@H](Cc1ccccc1)C(=O)O [Compound in Ex. 22] |
| 0.52 | 0.17 | C[C@H](NC(=O)[C@H](CCCNC(=N)N)NC(=O)[C@@H]1CCCN1C(=O)[C@@H](N)CCCNC(=N)N)C(=O)N[C@@H](CO)C(=O)N[C@@H](Cc1c[nH]cn1)C(=O)N[C@@H](CCCCN)C(=O)NCC(=O)N1CCC[C@H]1C(=O)N[C@@H](CC1CCCCC1)C(=O)N1CCC[C@H]1C(=O)N[C@@H](Cc1ccc(Cl)cc1)C(=O)O [Compound in Ex. 57] (H-RPRASHKGP[Cha]P[Phe(4-Cl)]-OH; N-terminus and C-terminus assumed) |
| 0.27 | 0.09 | CSCC[C@H](NC(=O)[C@H](C)N(C)C(=O)CNC(=O)[C@H](CCCNC(=N)N)NC(=O)[C@H](C)NC(=O)[C@H](CO)NC(=O)[C@H](CC(C)C)NC(=O)[C@H](CCCNC(=N)N)NC(=O)[C@@H]1CCCN1C(=O)[C@@H](N)CCCNC(=N)N)C(=O)N1CCC[C@H]1C(=O)N[C@@H](Cc1ccc(Cl)cc1)C(=O)O [Compound in Ex. 55] (H-RPRLSARG[NMeA]MP[Phe(4-Cl)]-OH; N-terminus and C-terminus assumed) |
| 0.22 | 0.21 | CSCC[C@H](NC(=O)[C@@H]1CCCN1C(=O)CNC(=O)[C@H](CCCCN)NC(=O)[C@H](C)NC(=O)[C@H](CO)NC(=O)[C@H](CC(C)C)NC(=O)[C@H](CCCNC(=N)N)NC(=O)[C@@H]1CCCN1C(=O)[C@H](CCCNC(=N)N)NC(=O)[C@@H]1CCC(=O)N1)C(=O)N1CCC[C@H]1C(=O)N[C@@H](Cc1ccccc1)C(=O)O [Compound in Ex. 29] |
| 0.41 | 0.15 | CC(C)C[C@H](NC(=O)[C@H](C)NC(=O)[C@@H]1CCCN1C(=O)[C@@H](N)CCCNC(=N)N)C(=O)N[C@@H](CO)C(=O)N[C@@H](Cc1c[nH]cn1)C(=O)N[C@@H](CCCCN)C(=O)NCC(=O)N1CCC[C@H]1C(=O)N[C@@H](CC1CCCCC1)C(=O)N1CCC[C@H]1C(=O)N[C@@H](Cc1ccc(Cl)cc1)C(=O)O [Compound in Ex. 58] (H-RPALSHKGP[Cha]P[Phe(4-Cl)]-OH; N-terminus and C-terminus assumed) |
| 0.19 | 0.29 | CSCC[C@H](NC(=O)CNC(=O)CNC(=O)[C@H](CCCNC(=N)N)NC(=O)[C@H](C)NC(=O)[C@H](CO)NC(=O)[C@H](CC(C)C)NC(=O)[C@H](CCCNC(=N)N)NC(=O)[C@@H]1CCCN1C(=O)[C@@H](N)CCCNC(=N)N)C(=O)N1CCC[C@H]1C(=O)N[C@@H](Cc1ccc(Cl)cc1)C(=O)O [Compound in Ex. 54] (H-RPRLSARGGMP[Phe(4-Cl)]-OH; N-terminus and C-terminus assumed) |
| 0.52 | 0.26 | CC(C)C[C@H](NC(=O)[C@H](CCCNC(=N)N)NC(=O)[C@@H]1CCCN1C(=O)[C@@H](N)CCCNC(=N)N)C(=O)N[C@@H](CO)C(=O)N[C@@H](CN)C(=O)N[C@@H](CCCNC(=N)N)C(=O)NCC(=O)N1CCC[C@H]1C(=O)N[C@@H](CC1CCCCC1)C(=O)N1CCC[C@H]1C(=O)N[C@@H](Cc1ccc(Cl)cc1)C(=O)O [Compound in Ex. 65, Arg-Pro-Arg-Leu-Ser-Dap-Arg-Gly-Pro-Cha-Pro-Phe(Cl)] (H-RPRLS[Dap]RGP[Cha]P[Phe(4-Cl)]-OH) |
| 0.69 | 0.11 | CC(=O)NC[C@H](NC(=O)[C@H](CO)NC(=O)[C@H](CC(C)C)NC(=O)[C@H](CCCNC(=N)N)NC(=O)[C@@H]1CCCN1C(=O)[C@@H](N)CCCNC(=N)N)C(=O)N[C@@H](CCCNC(=N)N)C(=O)NCC(=O)N1CCC[C@H]1C(=O)N[C@@H](CC1CCCCC1)C(=O)N1CCC[C@H]1C(=O)N[C@@H](Cc1ccc(Cl)cc1)C(=O)O [Compound in Ex. 66, Arg-Pro-Arg-Leu-Ser-Dap(Ac)-Arg-Gly-Pro-Cha-Pro-Phe(Cl)] (H-RPRLS[Dap](Ac)RGP[Cha]P[Phe(4-Cl)]-OH) |
| 0.32 | 0.18 | CSCC[C@H](NC(=O)[C@@H]1CCCN1C(=O)CNC(=O)[C@H](CCCNC(=N)N)NC(=O)[C@H](C)NC(=O)[C@H](CO)NC(=O)[C@H](CC(C)C)NC(=O)[C@H](CCCNC(=N)N)NC(=O)[C@@H]1CCCN1C(=O)[C@H](CCCNC(=N)N)NC(=O)[C@H](CCC(N)=O)NC(=O)[C@H](CCCNC(=N)N)NC(=O)[C@@H](N)CCCNC(=N)N)C(=O)N1CCC[C@H]1C(=O)N[C@@H](Cc1ccc(Cl)cc1)C(N)=O [Compound in Ex. 59] |
| 0.38 |  | CSCC[C@H](NC(=O)[C@@H]1CCCN1C(=O)CNC(=O)[C@H](CCCCN(C)C)NC(=O)[C@H](C)NC(=O)[C@H](CO)NC(=O)[C@H](CC(C)C)NC(=O)[C@H](CCCNC(=N)N)NC(=O)[C@@H]1CCCN1C(=O)[C@@H](N)CCCNC(=N)N)C(=O)N1CCC[C@H]1C(=O)N[C@@H](Cc1ccccc1)C(=O)O [Compound in Ex. 64, Arg-Pro-Arg-Leu-Ser-Ala-Lys(Me)2-Gly-Pro-Met-Pro-Phe] (H-RPRLSA[Lys(Me2)]GPMPF-OH; N-terminus and C-terminus assumed) |
|  | 0.11 | RPRLSARGPM [Compound in Ex. 27] |
